Source: article PMC12028158, “Synthesis and In Vitro Evaluation of the Anticancer Effect of Novel Phosphonium Vindoline Derivatives” (International Journal of Molecular Sciences, 2025)
Read-outs that look alike come from different tables or passages of the source.

How the values were obtained:
Type in all cases: cell-based
HT29 = test: NCI60 five-dose screen; details: Homo sapiens, HT-29
HOP-62 = test: NCI60 one-dose screen; details: Homo sapiens
[1] = tested on: 60 human tumor cell lines (NCI60); test: NCI60 five-dose screen, overall mean; details: 60 cell, mean over all 60 cell lines, read-out: Mean GI50
HS 578T = test: NCI60 five-dose screen; details: Homo sapiens
OVCAR-8 = test: NCI60 one-dose screen; details: Homo sapiens
HOP-92 [2] = test: NCI60 five-dose screen; details: Homo sapiens
MDA-MB-435 = test: NCI60 five-dose screen; details: Homo sapiens
CNS Cancer panel = test: NCI60 five-dose screen, panel mean; details: Homo sapiens, read-out: Mean GI50
UACC-257 = test: NCI60 one-dose screen; details: Homo sapiens
CAKI-1 [3] = test: NCI60 five-dose screen; details: Homo sapiens
NCI-H226 [4] = test: NCI60 one-dose screen; details: Homo sapiens
HCC-2998 = test: NCI60 five-dose screen; details: Homo sapiens
SF-295 = test: NCI60 one-dose screen; details: Homo sapiens
BT-549 = test: NCI60 one-dose screen; details: Homo sapiens
U251 = test: NCI60 one-dose screen; details: Homo sapiens
T-47D = test: NCI60 five-dose screen; details: Homo sapiens, T47D
NCI-H226 [5] = test: NCI60 five-dose screen; details: Homo sapiens
HOP-92 [6] = test: NCI60 one-dose screen; details: Homo sapiens
SNB-19 = test: NCI60 five-dose screen; details: Homo sapiens
CAKI-1 [7] = test: NCI60 one-dose screen; details: Homo sapiens
SF-268 = test: NCI60 five-dose screen; details: Homo sapiens
SN12C = test: NCI60 five-dose screen; details: Homo sapiens
HL-60(TB) = test: NCI60 one-dose screen; details: Homo sapiens
SNB-75 = test: NCI60 five-dose screen; details: Homo sapiens
Leukemia panel = test: NCI60 five-dose screen, panel mean; details: Homo sapiens, read-out: Mean GI50
SK-MEL-2 [8] = test: NCI60 five-dose screen; details: Homo sapiens
Colon Cancer panel = test: NCI60 five-dose screen, panel mean; details: Homo sapiens, read-out: Mean GI50
SK-MEL-2 [9] = test: NCI60 one-dose screen; details: Homo sapiens
A549/ATCC = test: NCI60 five-dose screen; details: Homo sapiens
Breast Cancer panel = test: NCI60 five-dose screen, panel mean; details: Homo sapiens, read-out: Mean GI50
ACHN = test: NCI60 one-dose screen; details: Homo sapiens, read-out: Growth percent
IGROV1 = test: NCI60 five-dose screen; details: Homo sapiens, IGROV-1
MOLT-4 = test: NCI60 one-dose screen; details: Homo sapiens
UO-31 = test: NCI60 five-dose screen; details: Homo sapiens
SK-MEL-5 = test: NCI60 five-dose screen; details: Homo sapiens
SR = test: NCI60 five-dose screen; details: Homo sapiens
MDA-MB231ATCC = test: NCI60 five-dose screen; details: Homo sapiens, MDA-MB-231
MCF7 = test: NCI60 one-dose screen; details: Homo sapiens

With `CC[C@]12C=CCN3CC[C@@]4(c5ccc(OC)cc5N(C)[C@H]4[C@@](O)(C(=O)OC)[C@@H]1OC(=O)CCC[P+](c1ccccc1)(c1ccccc1)c1ccccc1)[C@@H]32` [compound 3, reference compound] the GI50 (HT29; HT29, Colon Cancer, five-dose, read-out: GI50) was 266 nM, the activity at 10 µM (HOP-62; HOP-62, 10 μM, one-dose, read-out: Growth percent) was 2.56% and the GI50 [1] was 1980 nM. The GI50 (HS 578T; HS 578T, Breast Cancer, five-dose, read-out: GI50) was 1260 nM, the activity at 10 µM (OVCAR-8; OVCAR-8, 10 μM, one-dose, read-out: Growth percent) was 3.13% and the GI50 (HOP-92 [2]; HOP-92, Non-small Cell Lung Cancer, five-dose, read-out: GI50) was 66 nM. For the same molecule, the GI50 (MDA-MB-435; MDA-MB-435, Melanoma, five-dose, read-out: GI50) was 278 nM, the GI50 (CNS Cancer panel; mean over CNS Cancer panel) was 760 nM and the activity at 10 µM (UACC-257; UACC-257, 10 μM, one-dose, read-out: Growth percent) was -27.3%. The GI50 (CAKI-1 [3]; CAKI-1, Renal Cancer, five-dose, read-out: GI50) was 5570 nM, the activity at 10 µM (NCI-H226 [4]; NCI-H226, 10 μM, one-dose, read-out: Growth percent) was 14% and the GI50 (HCC-2998; HCC-2998, Colon Cancer, five-dose, read-out: GI50) was 436 nM. For the same molecule, the activity at 10 µM (SF-295; SF-295, 10 μM, one-dose, read-out: Growth percent) was 23.3%, the activity at 10 µM (BT-549; BT-549, 10 μM, one-dose, read-out: Growth percent) was 11% and the activity at 10 µM (U251; U-251, U251, 10 μM, one-dose, read-out: Growth percent) was 4.03%. It also gave a GI50 (T-47D; T-47D, Breast Cancer, five-dose, read-out: GI50) of 192 nM, a GI50 (NCI-H226 [5]; NCI-H226, Non-small Cell Lung Cancer, five-dose, read-out: GI50) of 2040 nM and an activity at 10 µM (HOP-92 [6]; HOP-92, 10 μM, one-dose, read-out: Growth percent) of -40%. For the same molecule, the GI50 (SNB-19; SNB-19, SNB-19, CNS Cancer, five-dose, read-out: GI50) was 334 nM, the activity at 10 µM (CAKI-1 [7]; CAKI-1, 10 μM, one-dose, read-out: Growth percent) was 52.2% and the GI50 (SF-268; SF-268, CNS Cancer, five-dose, read-out: GI50) was 975 nM. It also gave a GI50 (SN12C; Renal Cancer, five-dose, read-out: GI50) of 590 nM, an activity at 10 µM (HL-60(TB); HL-60(TB), 10 μM, one-dose, read-out: Growth percent) of -53.1% and a GI50 (SNB-75; SNB-75, CNS Cancer, five-dose, read-out: GI50) of 750 nM. It also gave a GI50 (Leukemia panel; mean over Leukemia panel) of 360 nM, a GI50 (SK-MEL-2 [8]; SK-MEL-2, SK-MEL-2, Melanoma, five-dose, read-out: GI50) of 322 nM and a GI50 (Colon Cancer panel; mean over Colon Cancer panel) of 1690 nM. For the same molecule, the activity at 10 µM (SK-MEL-2 [9]; SK-MEL-2, 10 μM, one-dose, read-out: Growth percent) was -65.3%, the GI50 (A549/ATCC; A549/ATCC, Non-small Cell Lung Cancer, five-dose, read-out: GI50) was 1350 nM and the GI50 (Breast Cancer panel; mean over Breast Cancer panel) was 450 nM. It also gave an activity at 10 µM (ACHN; 10 μM, one-dose) of 89.9%, a GI50 (IGROV1; IGROV1, Ovarian Cancer, five-dose, read-out: GI50) of 237 nM and an activity at 10 µM (MOLT-4; MOLT-4, 10 μM, one-dose, read-out: Growth percent) of 5.41%. It also gave a GI50 (UO-31; UO-31, Renal Cancer, five-dose, read-out: GI50) of 10800 nM, a GI50 (SK-MEL-5; SK-MEL-5, Melanoma, five-dose, read-out: GI50) of 766 nM and a GI50 (SR; Leukemia, five-dose, read-out: GI50) of 346 nM. For the same molecule, the GI50 (MDA-MB231ATCC; MDA-MB231ATCC, Breast Cancer, five-dose, read-out: GI50) was 406 nM and the activity at 10 µM (MCF7; MCF7, 10 μM, one-dose, read-out: Growth percent) was -3.34%.
In the case of `CC[C@]12C=CCN3CC[C@@]4(c5ccc(OC)cc5N(C)[C@H]4[C@@](O)(C(=O)OC)[C@@H]1OC(=O)CCC[P+](c1ccccc1)(c1ccccc1)c1ccccc1OC)[C@@H]32` [9f], the GI50 (HT29) is reported as 356 nM, the activity at 10 µM (HOP-62; HOP-62, read-out: Growth percent) is reported as -13.7% and the GI50 (HS 578T; Hs-578T) is reported as 473 nM. It also gave an activity at 10 µM (OVCAR-8; OVCAR-8, read-out: Growth percent) of 6.9%, a GI50 (HOP-92 [2]; HOP-92) of 172 nM and a GI50 (MDA-MB-435; MDA-MB-435) of 299 nM. For the same molecule, the GI50 (CNS Cancer panel) was 570 nM, the activity at 10 µM (UACC-257; UACC-257, read-out: Growth percent) was -73% and the GI50 (CAKI-1 [3]; CAKI-1) was 1900 nM. The activity at 10 µM (NCI-H226 [4]; NCI-H226, read-out: Growth percent) was -38.6%, the GI50 (HCC-2998; HCC 2998) was 325 nM and the activity at 10 µM (SF-295; SF-295, read-out: Growth percent) was -42.3%. For the same molecule, the activity at 10 µM (BT-549; BT-549, read-out: Growth percent) was -64.2%, the activity at 10 µM (U251; U-251, read-out: Growth percent) was -96.9% and the GI50 (T-47D) was 302 nM. For the same molecule, the GI50 (NCI-H226 [5]; NCI-H226) was 1210 nM, the activity at 10 µM (HOP-92 [6]; HOP-92, read-out: Growth percent) was -58.4% and the GI50 (SNB-19; SNB-19) was 313 nM. The activity at 10 µM (CAKI-1 [7]; CAKI-1, read-out: Growth percent) was -40.2%, the GI50 (SF-268; SF-268) was 372 nM and the GI50 (SN12C) was 325 nM. For the same molecule, the activity at 10 µM (HL-60(TB); HL-60, read-out: Growth percent) was -5.95%, the GI50 (SNB-75; SNB-75) was 197 nM and the GI50 (Leukemia panel) was 220 nM. The GI50 (SK-MEL-2 [8]; SK-MEL-2) was 322 nM, the GI50 (Colon Cancer panel) was 1610 nM and the activity at 10 µM (SK-MEL-2 [9]; SK-MEL-2, read-out: Growth percent) was -98%. It also gave a GI50 (A549/ATCC; A549) of 945 nM, a GI50 (Breast Cancer panel) of 310 nM and an activity at 10 µM (ACHN) of 0.6%. The GI50 (IGROV1) was 510 nM, the activity at 10 µM (MOLT-4; MOLT-4, read-out: Growth percent) was 21.2% and the GI50 (UO-31; UO-31) was 11000 nM. The GI50 (SK-MEL-5; SK-MEL-5) was 777 nM, the GI50 (SR) was 221 nM and the GI50 (MDA-MB231ATCC) was 397 nM. For the same molecule, the activity at 10 µM (MCF7; MCF7, read-out: Growth percent) was -68.1%.
